Assay results as given in patent publication US8741934B2, “Inhibitors of ion channels” (Pfizer Limited, priority 2007, dated 2014).

Biological target: T1, hSCN3A sodium channels (Homo sapiens, UniProt Q9NY46)
T1 construct: expressed in transfected cells
Experiment: hSCN3A electrophysiology, Ionworks Quattro automated platform (Table C)
Assay type: cell-based
Settings: for inhibition at 3 µM: 3 μM compound, read-out: SCN3A % INHIB HTS IWQ 3 μM; for inhibition at 10 µM: 10 μM compound, read-out: SCN3A % INHIB HTS IWQ 10 μM
Method: Human Embryonic Kidney (HEK) cells were transfected with an hSCN3A construct using lipofectamine reagent (Invitrogen), using standard techniques. […] Clones were screened for expression using the whole-cell voltage-clamp technique.
HEK cells stably transfected with hSCN3A were maintained in DMEM medium supplemented with 10% heat-inactivated fetal bovine serum and 400 μg/ml G418 sulfate in an incubator at 37° C. with a humidified atmosphere of 10% CO2. […] For electrophysiological studies, cells were removed from the culture flask by brief trypsinization and replated at low density onto glass cover slips. Cells were typically used for electrophysiological experiments within 24 to 72 h after plating.
Electrophysiological assays were also conducted using the Ionworks Quattro automated electrophysiological platform (Molecular Devices Corp) (Table C). Intracellular and extracellular solutions were as described above with the following changes, 100 μg/ml amphotericin was added to the intracellular solution to perforate the membrane and allow electrical access to the cells. hSCN3A cells were grown and harvested as for PatchXpress and cells were resuspended in extracellular solution at a concentration of 3-4×10^6 cells/ml. The onboard liquid handling facility of the Ionworks Quattro was used for dispensing cells and application of test compounds. A voltage protocol was then applied that comprised of a voltage step to fully inactivate the sodium channels, followed by a brief hyperpolarized recovery period to allow partial recovery from inactivation for unblocked sodium channels, followed by a test depolarized voltage step to assess magnitude of inhibition by test compound. Compound effect was determined based on current amplitude difference between the pre-compound addition and post-compound addition scans.

T1 sequence (Q9NY46 whole entry): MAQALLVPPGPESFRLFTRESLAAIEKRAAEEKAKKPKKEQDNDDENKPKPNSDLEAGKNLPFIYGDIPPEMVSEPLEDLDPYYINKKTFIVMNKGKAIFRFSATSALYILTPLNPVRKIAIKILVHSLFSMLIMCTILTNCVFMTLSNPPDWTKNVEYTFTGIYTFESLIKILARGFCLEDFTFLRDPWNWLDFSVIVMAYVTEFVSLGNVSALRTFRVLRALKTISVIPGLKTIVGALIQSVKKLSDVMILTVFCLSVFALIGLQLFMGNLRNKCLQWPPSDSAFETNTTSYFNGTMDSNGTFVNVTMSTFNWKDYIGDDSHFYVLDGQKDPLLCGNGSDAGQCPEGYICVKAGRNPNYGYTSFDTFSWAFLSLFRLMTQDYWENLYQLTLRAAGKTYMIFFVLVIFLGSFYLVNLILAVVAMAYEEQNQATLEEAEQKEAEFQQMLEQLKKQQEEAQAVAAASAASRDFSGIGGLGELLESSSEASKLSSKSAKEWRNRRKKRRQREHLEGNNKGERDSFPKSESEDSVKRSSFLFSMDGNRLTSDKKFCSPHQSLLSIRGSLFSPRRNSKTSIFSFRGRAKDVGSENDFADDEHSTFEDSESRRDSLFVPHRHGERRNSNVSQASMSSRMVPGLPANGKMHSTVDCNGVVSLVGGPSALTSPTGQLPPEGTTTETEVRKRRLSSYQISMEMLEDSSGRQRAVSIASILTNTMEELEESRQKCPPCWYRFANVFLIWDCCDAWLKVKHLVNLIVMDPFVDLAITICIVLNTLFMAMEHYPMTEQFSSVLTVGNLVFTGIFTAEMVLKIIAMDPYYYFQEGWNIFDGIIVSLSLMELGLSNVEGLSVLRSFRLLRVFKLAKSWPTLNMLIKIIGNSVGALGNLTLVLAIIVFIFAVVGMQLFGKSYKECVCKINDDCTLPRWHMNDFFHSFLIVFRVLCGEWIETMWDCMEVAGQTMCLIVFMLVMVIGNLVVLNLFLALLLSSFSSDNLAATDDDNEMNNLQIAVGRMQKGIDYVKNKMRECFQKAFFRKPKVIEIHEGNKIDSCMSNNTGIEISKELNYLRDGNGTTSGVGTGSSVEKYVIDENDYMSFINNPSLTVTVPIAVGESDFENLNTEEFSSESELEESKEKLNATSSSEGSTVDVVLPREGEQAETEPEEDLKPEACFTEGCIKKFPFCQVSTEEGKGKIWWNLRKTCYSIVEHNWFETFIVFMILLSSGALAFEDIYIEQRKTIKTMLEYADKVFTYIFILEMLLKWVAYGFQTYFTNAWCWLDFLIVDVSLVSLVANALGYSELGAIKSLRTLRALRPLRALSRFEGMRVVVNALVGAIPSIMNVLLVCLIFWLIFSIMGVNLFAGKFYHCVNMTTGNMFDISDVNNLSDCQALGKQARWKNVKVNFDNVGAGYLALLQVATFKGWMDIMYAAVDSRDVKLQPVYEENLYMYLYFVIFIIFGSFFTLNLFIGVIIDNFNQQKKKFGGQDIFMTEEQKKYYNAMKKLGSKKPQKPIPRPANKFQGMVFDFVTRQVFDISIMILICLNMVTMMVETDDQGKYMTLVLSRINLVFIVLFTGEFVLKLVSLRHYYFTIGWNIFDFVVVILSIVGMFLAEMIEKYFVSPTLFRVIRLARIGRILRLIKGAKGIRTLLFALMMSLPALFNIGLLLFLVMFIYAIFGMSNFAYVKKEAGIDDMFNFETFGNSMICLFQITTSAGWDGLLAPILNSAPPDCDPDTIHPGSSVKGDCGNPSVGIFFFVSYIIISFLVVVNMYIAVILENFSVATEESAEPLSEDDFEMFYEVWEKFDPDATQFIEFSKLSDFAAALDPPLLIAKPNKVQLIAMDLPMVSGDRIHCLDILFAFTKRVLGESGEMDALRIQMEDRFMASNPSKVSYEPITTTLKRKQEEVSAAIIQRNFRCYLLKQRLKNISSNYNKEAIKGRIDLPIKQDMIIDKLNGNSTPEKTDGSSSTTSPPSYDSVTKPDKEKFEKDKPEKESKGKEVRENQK

| SMILES | inhibition at 3 µM [%] | inhibition at 10 µM [%] | SCN3A INHIB INACT DRC EP IWQ EMAX (Emax of dose-response curve, inactivated state) | IC50 (read-out: SCN3A IWQ IC-50) [µM] |
| --- | --- | --- | --- | --- |
| O=C(c1ccc(S(=O)(=O)Nc2nccs2)cc1)N1CCCC(COc2cc(F)cc(F)c2)C1 (stereo not shown) [Example 271, 4-({3-[(3,5-Difluorophenoxy)methyl]piperidin-1-yl}carbonyl)-N-1,3-thiazol-2-yl-benzenesulfonamide] | 35.8 | 41.4 | 52.4 | 26.4 |
| Cc1cc(CC(NC(=O)c2ccc(S(=O)(=O)Nc3nccs3)cc2)c2ccc(F)cc2)on1 (stereo not shown) [Example 156, N-[1-(4-fluorophenyl)-2-(3-methylisoxazol-5-yl)ethyl]-4-[(1,3-thiazol-2-ylamino)sulfonyl]benzamide] | 13.3 | 30.3 |  |  |
| Cc1cccc(CC2COCCN(C(=O)c3ccc(S(=O)(=O)Nc4nccs4)cc3)C2)n1 (stereo not shown) [Example 225, 4-({6-[(6-Methylpyridin-2-yl)methyl]-1,4-oxazepan-4-yl}carbonyl)-N-1,3-thiazol-2-yl-benzenesulfonamide] | 6.08 | -8.14 |  |  |
| COc1ccc(C2(NC(=O)c3ccc(S(=O)(=O)Nc4nccs4)cc3)CC2)cc1 [Example 160, N-[1-(4-methoxyphenyl)cyclopropyl]-4-[(1,3-thiazol-2-ylamino)sulfonyl]benzamide] | 15.6 | 14.8 |  |  |
| Cc1ccc(OCCNC(=O)c2ccc(S(=O)(=O)Nc3nccs3)cc2)cc1 [Example 154, N-[2-(4-methylphenoxy)ethyl]-4-[(1,3-thiazol-2-ylamino)sulfonyl]benzamide] | 28 | 30.8 |  |  |
| O=C(NCc1c(F)cccc1Cl)c1ccc(S(=O)(=O)Nc2nccs2)cc1 [Example 86, N-(2-chloro-6-fluorobenzyl)-4-[(1,3-thiazol-2-ylamino)sulfonyl]benzamide] | 22.3 | 26.3 |  |  |
| O=C(N[C@@H](CO)Cc1ccccc1)c1ccc(S(=O)(=O)Nc2nccs2)cc1 [Example 185, N-[(1R)-1-benzyl-2-hydroxyethyl]-4-[(1,3-thiazol-2-ylamino)sulfonyl]benzamide] | 20.9 | 20.8 |  |  |
| O=C(NCCOc1ccccc1F)c1ccc(S(=O)(=O)Nc2nccs2)cc1 [Example 167, N-[2-(2-fluorophenoxy)ethyl]-4-[(1,3-thiazol-2-ylamino)sulfonyl]benzamide] | 30.8 | 43 |  |  |
| O=C(c1ccc(S(=O)(=O)Nc2nccs2)cc1)N1CCOC(C2CC2)C1 (stereo not shown) [Example 231, 4-[(2-Cyclopropylmorpholin-4-yl)carbonyl]-N-1,3-thiazol-2-yl-benzenesulfonamide] | 3.22 | -7.02 |  |  |
| COc1ccc(CC2COCCN(C(=O)c3ccc(S(=O)(=O)Nc4nccs4)cc3)C2)cc1F (stereo not shown) [Example 199, 4-{[6-(3-Fluoro-4-methoxybenzyl)-1,4-oxazepan-4-yl]carbonyl}-N-1,3-thiazol-2-yl-benzenesulfonamide] | 10.2 | 7.42 |  |  |
| Cc1ccccc1O[C@@H]1CCN(C(=O)c2ccc(S(=O)(=O)Nc3nccs3)cc2)C1 [Example 204, 4-{[(3R)-3-(2-methylphenoxy)pyrrolidin-1-yl]carbonyl}-N-1,3-thiazol-2-yl-benzenesulfonamide] | 18.1 | 16.2 |  |  |
| CN(CCC(O)c1ccccc1)C(=O)c1ccc(S(=O)(=O)Nc2nccs2)cc1 (stereo not shown) [Example 235, N-(3-hydroxy-3-phenylpropyl)-N-methyl-4-[(1,3-thiazol-2-yl-amino)sulfonyl]benzamide] | 21.4 | -2.43 |  |  |
| COc1ccc(CC2CCCN2C(=O)c2ccc(S(=O)(=O)Nc3nccs3)cc2)cc1 (stereo not shown) [Example 206, 4-{[2-(4-Methoxybenzyl)pyrrolidin-1-yl]carbonyl}-N-1,3-thiazol-2-yl-benzenesulfonamide] | 4.17 | 16.7 |  |  |
| O=C1[C@@H]2CC[C@@H]3[C@H]1C(c1ccccc1)N(C(=O)c1ccc(S(=O)(=O)Nc4nccs4)cc1)[C@H]3C2 (stereo partly drawn) [Example 192, 4-{[(3S,3aR,6R,7aS)-8-oxo-2-phenyloctahydro-1H-3,6-methanoindol-1-yl]carbonyl}-N-1,3-thiazol-2-yl-benzenesulfonamide] | 6.18 | 26 |  |  |
| COc1cccc(C2CCCCN2C(=O)c2ccc(S(=O)(=O)Nc3nccs3)cc2)c1 (stereo not shown) [Example 201, 4-{[2-(3-Methoxyphenyl)piperidin-1-yl]carbonyl}-N-1,3-thiazol-2-yl-benzenesulfonamide] | 13.7 | -0.98 |  |  |
| O=C(c1ccc(S(=O)(=O)Nc2nccs2)cc1)N1CCCC1c1ccccc1F (stereo not shown) [Example 281, 4-{[2-(2-Fluorophenyl)pyrrolidin-1-yl]carbonyl}-N-1,3-thiazol-2-yl-benzenesulfonamide] | 10.2 | 28.9 |  |  |

| SMILES | inhibition at 3 µM [%] | inhibition at 10 µM [%] | SCN3A INHIB INACT DRC EP IWQ EMAX (Emax of dose-response curve, inactivated state) | IC50 (read-out: SCN3A IWQ IC-50) [µM] |
| --- | --- | --- | --- | --- |
| O=C(c1ccc(S(=O)(=O)Nc2nccs2)cc1)N1CCCC1Cc1ccccc1F (stereo not shown) [Example 233, 4-{[2-(2-Fluorobenzyl)pyrrolidin-1-yl]carbonyl}-N-1,3-thiazol-2-yl-benzenesulfonamide] | 18.5 | 15.9 |  |  |
| CC(Cc1ccc(F)cc1)NC(=O)c1ccc(S(=O)(=O)Nc2nccs2)cc1 (stereo not shown) [Example 149, N-[2-(4-fluorophenyl)-1-methylethyl]-4-[(1,3-thiazol-2-ylamino)sulfonyl]benzamide] | 12.5 | 14.6 |  |  |
| O=C(c1ccc(S(=O)(=O)Nc2nccs2)cc1)N1CCCC(Cc2ncccn2)C1 (stereo not shown) [Example 237, 4-{[3-(Pyrimidin-2-ylmethyl)piperidin-1-yl]carbonyl}-N-1,3-thiazol-2-yl-benzenesulfonamide] | 24.7 | 17.6 |  |  |
| COc1cccc(C2CCCN2C(=O)c2ccc(S(=O)(=O)Nc3nccs3)cc2)c1 (stereo not shown) [Example 273, 4-{[2-(3-Methoxyphenyl)pyrrolidin-1-yl]carbonyl}-N-1,3-thiazol-2-yl-benzenesulfonamide] | 4.82 | 2.72 |  |  |
| Cc1ccc([C@H](C)NC(=O)c2ccc(S(=O)(=O)Nc3nccs3)cc2)cc1 [Example 79, N-[(1S)-1-(4-methylphenyl)ethyl]-4-[(1,3-thiazol-2-ylamino)sulfonyl]benzamide] | 17.7 | -1.9 |  |  |
| O=C(c1ccc(S(=O)(=O)Nc2nccs2)cc1)N1CCCCC1COc1ccccc1 (stereo not shown) [Example 224, 4-{[2-(Phenoxymethyl)piperidin-1-yl]carbonyl}-N-1,3-thiazol-2-yl-benzenesulfonamide] | 3.47 | 9.34 |  |  |
| O=C(c1ccc(S(=O)(=O)Nc2nccs2)cc1)N1CCCCC1c1ccccn1 (stereo not shown) [Example 238, 4-[(2-Pyridin-2-ylpiperidin-1-yl)carbonyl]-N-1,3-thiazol-2-yl-benzenesulfonamide] | 3.68 | 9.77 |  |  |
| COc1cccc(CC2CCCN2C(=O)c2ccc(S(=O)(=O)Nc3nccs3)cc2)c1 (stereo not shown) [Example 240, 4-{[2-(3-Methoxybenzyl)pyrrolidin-1-yl]carbonyl}-N-1,3-thiazol-2-yl-benzenesulfonamide] | 14.4 | 20.2 |  |  |
| O=C(NC1(Cc2ccccc2Cl)CC1)c1ccc(S(=O)(=O)Nc2nccs2)cc1 [Example 129, N-[1-(2-chlorobenzyl)cyclopropyl]-4-[(1,3-thiazol-2-ylamino)sulfonyl]benzamide] | 13.6 | 24.2 |  |  |
| O=C(NC1(Cc2cccc(Cl)c2)CC1)c1ccc(S(=O)(=O)Nc2nccs2)cc1 [Example 137, N-[1-(3-chlorobenzyl)cyclopropyl]-4-[(1,3-thiazol-2-ylamino)sulfonyl]benzamide] | 21.8 | 36.2 |  |  |
| CC(CNC(=O)c1ccc(S(=O)(=O)Nc2nccs2)cc1)c1ccccc1 (stereo not shown) [Example 155, N-(2-phenylpropyl)-4-[(1,3-thiazol-2-ylamino)sulfonyl]benzamide] | 30.1 | 40.8 |  |  |
| CC(c1ccccc1)N(CCO)C(=O)c1ccc(S(=O)(=O)Nc2nccs2)cc1 (stereo not shown) [Example 229, N-(2-hydroxyethyl)-N-(1-phenylethyl)-4-[(1,3-thiazol-2-yl-amino)sulfonyl]benzamide] | 12.5 | 3.91 |  |  |
| CCc1ccc(C)nc1NC(=O)c1ccc(S(=O)(=O)Nc2nccs2)cc1 [Example 178, N-(3-ethyl-6-methylpyridin-2-yl)-4-[(1,3-thiazol-2-ylamino)sulfonyl]benzamide] | 2.71 | 1.55 |  |  |
| CCN(C(=O)c1ccc(S(=O)(=O)Nc2nccs2)cc1)C(C)C(=O)c1ccccc1 (stereo not shown) [Example 209, N-ethyl-N-(1-methyl-2-oxo-2-phenylethyl)-4-[(1,3-thiazol-2-yl-amino)sulfonyl]benzamide] | 5.72 | -5.23 |  |  |
| Cc1nccc(C2CCCN2C(=O)c2ccc(S(=O)(=O)Nc3nccs3)cc2)n1 (stereo not shown) [Example 212, 4-{[2-(2-Methylpyrimidin-4-yl)pyrrolidin-1-yl]carbonyl}-N-1,3-thiazol-2-yl-benzenesulfonamide] | 14.7 | -8.45 |  |  |
